pIC50, pKi: −log10 of the molar value. Activity calls are given as the source filed them. No cut-off for these calls is given here.
Legend:
[1] = biological target: Delta-type opioid receptor (Homo sapiens) (UniProt P41143); conditions: Compound concentration 10.0 uM
[2] = biological target: 5-hydroxytryptamine receptor 2B (Homo sapiens, UniProt P41595); assay: GPCRScan assay: inhibition of 5-HT2B; design: radioligand conc. used [nm] 1.0 – 2.0, parental cells stable HEK
[3] = biological target: Sigma intracellular receptor 2 (Homo sapiens) (UniProt Q5BJF2); conditions: Compound concentration 10.0 uM
[4] = system: Phosphatidylinositol 4,5-bisphosphate 3-kinase catalytic subunit alpha isoform (Homo sapiens), P42336 [Q546K]
Chain of Phosphatidylinositol 4,5-bisphosphate 3-kinase catalytic subunit alpha isoform (Homo sapiens), P42336 [Q546K] (P42336 whole entry Q546K, canonical isoform): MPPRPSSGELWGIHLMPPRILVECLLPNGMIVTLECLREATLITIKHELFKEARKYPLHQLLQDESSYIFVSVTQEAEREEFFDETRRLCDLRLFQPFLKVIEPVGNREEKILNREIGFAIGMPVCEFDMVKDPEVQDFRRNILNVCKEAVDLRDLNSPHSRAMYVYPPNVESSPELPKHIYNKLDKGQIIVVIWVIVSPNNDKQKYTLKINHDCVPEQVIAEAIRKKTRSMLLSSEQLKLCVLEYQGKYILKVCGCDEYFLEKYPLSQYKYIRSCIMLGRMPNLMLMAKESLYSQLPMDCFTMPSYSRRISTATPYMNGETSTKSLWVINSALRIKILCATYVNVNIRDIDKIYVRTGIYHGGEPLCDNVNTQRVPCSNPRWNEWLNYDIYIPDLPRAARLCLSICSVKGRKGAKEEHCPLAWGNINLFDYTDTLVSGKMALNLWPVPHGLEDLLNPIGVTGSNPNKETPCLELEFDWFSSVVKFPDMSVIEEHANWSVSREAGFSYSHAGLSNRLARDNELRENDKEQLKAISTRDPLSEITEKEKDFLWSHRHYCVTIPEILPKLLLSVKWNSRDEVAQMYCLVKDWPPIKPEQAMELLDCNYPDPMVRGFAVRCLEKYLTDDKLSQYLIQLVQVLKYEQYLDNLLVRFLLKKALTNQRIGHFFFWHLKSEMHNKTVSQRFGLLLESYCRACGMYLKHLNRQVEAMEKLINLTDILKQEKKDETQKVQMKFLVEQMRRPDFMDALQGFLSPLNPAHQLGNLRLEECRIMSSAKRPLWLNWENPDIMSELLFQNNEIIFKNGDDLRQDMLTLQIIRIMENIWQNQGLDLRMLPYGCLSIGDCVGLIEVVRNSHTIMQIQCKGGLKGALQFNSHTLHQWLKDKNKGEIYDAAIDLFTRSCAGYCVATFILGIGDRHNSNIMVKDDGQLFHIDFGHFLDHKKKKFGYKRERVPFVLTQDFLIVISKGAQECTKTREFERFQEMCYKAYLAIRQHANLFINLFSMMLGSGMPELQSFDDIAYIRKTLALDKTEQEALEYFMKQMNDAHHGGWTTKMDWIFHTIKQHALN

[5] = biological target: GABA-A receptor; anion channel (Rattus norvegicus) (UniProt O09028+P15431+P18506+P18508+P19969+P20236+P23574+P23576+P28471+P28473+P30191+P62813+P63079+P63138+Q91ZM7+Q9ES14); conditions: Compound concentration 10.0 uM
[6] = biological target: Myosin light chain kinase 2, skeletal/cardiac muscle (Homo sapiens) (UniProt Q9H1R3)
[7] = biological target: Sigma non-opioid intracellular receptor 1 (Homo sapiens) (UniProt Q99720); conditions: Compound concentration 10.0 uM
[8] = biological target: Ephrin type-B receptor 3 (Homo sapiens) (UniProt P54753)
Chain of Ephrin type-B receptor 3 (Homo sapiens) (P54753 whole entry): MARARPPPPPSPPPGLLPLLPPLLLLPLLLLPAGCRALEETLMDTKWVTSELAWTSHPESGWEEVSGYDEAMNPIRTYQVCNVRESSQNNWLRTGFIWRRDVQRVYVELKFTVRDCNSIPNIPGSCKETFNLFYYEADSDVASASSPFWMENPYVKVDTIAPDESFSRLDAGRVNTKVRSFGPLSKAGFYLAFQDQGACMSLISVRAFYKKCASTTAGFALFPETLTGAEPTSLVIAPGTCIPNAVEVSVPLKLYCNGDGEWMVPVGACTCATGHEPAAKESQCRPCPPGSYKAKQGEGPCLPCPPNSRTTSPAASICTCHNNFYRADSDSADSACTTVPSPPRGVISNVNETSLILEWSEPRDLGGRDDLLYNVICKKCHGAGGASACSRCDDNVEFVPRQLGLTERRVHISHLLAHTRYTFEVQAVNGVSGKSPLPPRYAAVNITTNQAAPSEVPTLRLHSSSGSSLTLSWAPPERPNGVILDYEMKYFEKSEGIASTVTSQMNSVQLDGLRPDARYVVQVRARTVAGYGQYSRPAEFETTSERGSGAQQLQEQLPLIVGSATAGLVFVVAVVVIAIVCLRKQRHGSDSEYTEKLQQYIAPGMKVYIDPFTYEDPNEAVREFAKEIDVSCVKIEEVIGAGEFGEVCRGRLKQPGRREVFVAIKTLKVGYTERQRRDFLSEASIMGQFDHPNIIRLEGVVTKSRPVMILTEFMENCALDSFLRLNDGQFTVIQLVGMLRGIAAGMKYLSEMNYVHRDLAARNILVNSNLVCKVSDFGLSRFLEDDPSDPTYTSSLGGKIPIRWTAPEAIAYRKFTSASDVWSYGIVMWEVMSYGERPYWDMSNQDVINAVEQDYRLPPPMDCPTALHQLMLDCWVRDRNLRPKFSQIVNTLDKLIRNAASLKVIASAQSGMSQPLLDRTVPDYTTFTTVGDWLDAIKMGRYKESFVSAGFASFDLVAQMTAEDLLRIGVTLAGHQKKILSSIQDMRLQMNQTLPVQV

[9] = biological target: D(2) dopamine receptor (Homo sapiens) (UniProt P14416); conditions: Compound concentration 10.0 uM
[10] = biological target: Mitogen-activated protein kinase 13 (Homo sapiens) (UniProt O15264)
Chain of Mitogen-activated protein kinase 13 (Homo sapiens) (O15264 whole entry): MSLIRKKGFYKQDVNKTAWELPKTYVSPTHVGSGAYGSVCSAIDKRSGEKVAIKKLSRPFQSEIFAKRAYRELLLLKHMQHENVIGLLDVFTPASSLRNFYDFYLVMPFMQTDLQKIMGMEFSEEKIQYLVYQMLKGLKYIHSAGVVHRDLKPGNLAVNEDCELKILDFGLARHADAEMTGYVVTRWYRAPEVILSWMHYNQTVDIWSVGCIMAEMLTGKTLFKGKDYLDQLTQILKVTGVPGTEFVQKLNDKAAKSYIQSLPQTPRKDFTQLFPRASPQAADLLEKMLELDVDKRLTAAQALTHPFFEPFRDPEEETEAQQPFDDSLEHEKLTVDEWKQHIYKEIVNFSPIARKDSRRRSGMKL

[11] = biological target: Tyrosine-protein kinase ZAP-70 (Homo sapiens) (UniProt P43403)
Chain of Tyrosine-protein kinase ZAP-70 (Homo sapiens) (P43403 whole entry): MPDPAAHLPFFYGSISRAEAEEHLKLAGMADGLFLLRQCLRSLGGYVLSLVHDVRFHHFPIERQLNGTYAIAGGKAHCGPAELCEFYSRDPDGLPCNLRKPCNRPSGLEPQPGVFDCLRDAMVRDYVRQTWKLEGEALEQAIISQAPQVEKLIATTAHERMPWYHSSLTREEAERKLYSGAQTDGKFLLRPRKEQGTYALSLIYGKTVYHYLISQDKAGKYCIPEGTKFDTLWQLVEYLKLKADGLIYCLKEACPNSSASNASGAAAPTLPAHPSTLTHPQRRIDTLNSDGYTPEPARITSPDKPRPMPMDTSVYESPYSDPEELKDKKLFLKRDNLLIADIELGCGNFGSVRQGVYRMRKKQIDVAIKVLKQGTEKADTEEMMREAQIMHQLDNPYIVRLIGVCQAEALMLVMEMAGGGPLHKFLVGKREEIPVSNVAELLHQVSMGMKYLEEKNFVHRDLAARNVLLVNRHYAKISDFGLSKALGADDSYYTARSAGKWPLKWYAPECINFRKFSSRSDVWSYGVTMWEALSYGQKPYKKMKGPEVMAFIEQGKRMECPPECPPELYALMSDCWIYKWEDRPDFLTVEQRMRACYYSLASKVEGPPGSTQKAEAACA

[12] = biological target: 5-hydroxytryptamine receptor 1E (Homo sapiens) (UniProt P28566); conditions: Compound concentration 10.0 uM
[13] = biological target: Mitogen-activated protein kinase kinase kinase 14 (Homo sapiens) (UniProt Q99558)
Chain of Mitogen-activated protein kinase kinase kinase 14 (Homo sapiens) (Q99558 whole entry, looked up): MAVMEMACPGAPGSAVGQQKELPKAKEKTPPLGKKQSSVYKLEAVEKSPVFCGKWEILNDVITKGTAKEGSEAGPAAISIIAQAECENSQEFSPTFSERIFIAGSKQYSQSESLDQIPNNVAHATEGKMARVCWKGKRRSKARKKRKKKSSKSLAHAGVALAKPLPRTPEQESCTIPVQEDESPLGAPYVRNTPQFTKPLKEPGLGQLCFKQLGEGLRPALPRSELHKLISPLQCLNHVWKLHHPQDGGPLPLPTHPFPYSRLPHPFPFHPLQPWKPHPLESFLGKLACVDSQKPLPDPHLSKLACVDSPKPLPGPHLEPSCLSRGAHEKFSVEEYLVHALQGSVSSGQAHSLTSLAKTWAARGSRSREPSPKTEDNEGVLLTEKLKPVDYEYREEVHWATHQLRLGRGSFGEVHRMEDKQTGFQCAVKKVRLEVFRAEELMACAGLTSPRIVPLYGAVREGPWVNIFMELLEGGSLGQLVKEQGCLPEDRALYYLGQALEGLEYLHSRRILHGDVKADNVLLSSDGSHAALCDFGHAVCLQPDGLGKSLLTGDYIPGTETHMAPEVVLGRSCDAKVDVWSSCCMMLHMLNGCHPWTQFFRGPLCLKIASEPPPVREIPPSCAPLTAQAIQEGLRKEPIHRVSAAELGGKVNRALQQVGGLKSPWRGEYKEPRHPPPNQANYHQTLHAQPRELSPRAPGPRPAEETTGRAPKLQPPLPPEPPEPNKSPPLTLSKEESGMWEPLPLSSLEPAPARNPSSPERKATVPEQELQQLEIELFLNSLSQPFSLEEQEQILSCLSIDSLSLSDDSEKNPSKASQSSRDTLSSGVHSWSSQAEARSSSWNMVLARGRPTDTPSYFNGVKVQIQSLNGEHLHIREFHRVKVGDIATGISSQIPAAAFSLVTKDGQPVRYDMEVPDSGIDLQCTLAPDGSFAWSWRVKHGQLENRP

[14] = biological target: Calcium/calmodulin-dependent protein kinase type 1B (Homo sapiens) (UniProt Q6P2M8)
Chain of Calcium/calmodulin-dependent protein kinase type 1B (Homo sapiens) (Q6P2M8 whole entry): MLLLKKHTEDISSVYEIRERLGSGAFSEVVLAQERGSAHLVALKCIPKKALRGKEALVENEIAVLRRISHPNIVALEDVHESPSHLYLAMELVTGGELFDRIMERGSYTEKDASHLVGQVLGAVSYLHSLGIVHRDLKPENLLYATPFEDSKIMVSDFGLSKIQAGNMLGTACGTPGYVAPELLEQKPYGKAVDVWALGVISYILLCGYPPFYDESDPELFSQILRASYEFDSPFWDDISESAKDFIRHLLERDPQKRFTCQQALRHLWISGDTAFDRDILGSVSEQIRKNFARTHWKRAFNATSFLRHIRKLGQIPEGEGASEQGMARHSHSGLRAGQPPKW

[15] = biological target: Alpha-1D adrenergic receptor (Homo sapiens) (UniProt P25100); conditions: Compound concentration 10.0 uM
[16] = biological target: T1, Mitogen-activated protein kinase 1 (Homo sapiens, UniProt P28482); assay: Cell Assay: Inhibition of RSK phosphorylation (pRSK A375SM); assay type: cell-based, A375-SM
T1 sequence (P28482 whole entry): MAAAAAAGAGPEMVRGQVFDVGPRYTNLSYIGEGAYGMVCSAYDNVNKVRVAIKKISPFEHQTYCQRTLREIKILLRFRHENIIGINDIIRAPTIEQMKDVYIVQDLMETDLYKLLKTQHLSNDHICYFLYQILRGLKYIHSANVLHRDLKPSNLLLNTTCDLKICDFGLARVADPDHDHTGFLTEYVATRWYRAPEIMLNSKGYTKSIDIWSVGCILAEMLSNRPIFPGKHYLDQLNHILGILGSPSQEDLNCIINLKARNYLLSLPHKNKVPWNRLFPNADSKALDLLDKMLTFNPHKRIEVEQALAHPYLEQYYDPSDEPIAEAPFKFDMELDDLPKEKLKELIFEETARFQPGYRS

[17] = biological target: Serine/threonine-protein kinase ULK1 (Homo sapiens, UniProt O75385); assay: Inhibition of ULK1 at compound concentration of 10.0 uM using the ScanMax (DiscoverX)
[18] = biological target: Dual specificity protein kinase CLK4 (Homo sapiens, UniProt Q9HAZ1); assay: Inhibition of CLK4 at compound concentration of 10.0 uM using the ScanMax (DiscoverX)
[19] = biological target: Serine/threonine-protein kinase MARK2 (Homo sapiens, UniProt Q7KZI7); assay: Invitrogen kinase screen (MARK2)
[20] = biological target: Cyclin-dependent kinase 5 (Homo sapiens, UniProt Q00535); assay: Invitrogen kinase screen (CDK5)
Chain of Cyclin-dependent kinase 5 (Q00535 whole entry): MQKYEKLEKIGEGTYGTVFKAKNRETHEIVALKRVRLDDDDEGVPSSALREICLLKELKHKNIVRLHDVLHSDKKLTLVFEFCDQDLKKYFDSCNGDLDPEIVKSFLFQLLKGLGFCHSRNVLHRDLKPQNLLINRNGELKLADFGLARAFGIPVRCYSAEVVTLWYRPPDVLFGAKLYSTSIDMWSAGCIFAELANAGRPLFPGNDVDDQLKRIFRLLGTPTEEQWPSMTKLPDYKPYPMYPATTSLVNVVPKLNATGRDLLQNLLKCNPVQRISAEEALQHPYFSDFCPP

[21] = biological target: Serine/threonine-protein kinase TBK1 (Homo sapiens, UniProt Q9UHD2); assay: Invitrogen kinase screen (TBK1)
[22] = biological target: cGMP-dependent protein kinase 2 (Homo sapiens, UniProt Q13237); assay: Invitrogen kinase screen (PRKG2)
[23] = biological target: Serine/threonine-protein kinase Sgk1 (Homo sapiens, UniProt O00141); assay: Invitrogen kinase screen (SGK)
[24] = biological target: Cyclin-dependent kinase 2 (Homo sapiens, UniProt P24941); assay: Invitrogen kinase screen (CDK2)
[25] = biological target: Glycogen synthase kinase-3 alpha (Homo sapiens, UniProt P49840); assay: Invitrogen kinase screen (GSK3A)
[26] = biological target: 5-hydroxytryptamine receptor 6 (Homo sapiens) (UniProt P50406); conditions: Compound concentration 10.0 uM
[27] = NanoBRET (MAPK1, SGC Frankfurt); conditions: Homo sapiens
[28] = biological target: Glycogen synthase kinase-3 beta (Homo sapiens, UniProt P49841); assay: Invitrogen kinase screen (GSK3B)
[29] = biological target: 5-hydroxytryptamine receptor 1B (Homo sapiens) (UniProt P28222); conditions: Compound concentration 10.0 uM
[30] = biological target: T1, Mitogen-activated protein kinase 1; assay: Invitrogen kinase screen (MAPK1)
[31] = biological target: Muscarinic acetylcholine receptor M1 (Homo sapiens) (UniProt P11229); conditions: Compound concentration 10.0 uM
[32] = biological target: T1, Mitogen-activated protein kinase 1; assay: Cell Assay: Inhibition of RSK phosphorylation (pRSK with 40% mouse serum )
[33] = biological target: Serine/threonine-protein kinase 26 (Homo sapiens, UniProt Q9P289); assay: Invitrogen kinase screen (STK26)
[34] = biological target: Serine/threonine-protein kinase haspin (Homo sapiens, UniProt Q8TF76); assay: Inhibition of GSG2 at compound concentration of 10.0 uM using the ScanMax (DiscoverX)
[35] = biological target: G protein-coupled receptor kinase 3 (Homo sapiens, UniProt P35626); assay: Inhibition of GRK3 at compound concentration of 10.0 uM using the ScanMax (DiscoverX)
[36] = NanoBRET (MAPK3, SGC Frankfurt); conditions: Homo sapiens
[37] = biological target: T1, Mitogen-activated protein kinase 1
[38] = biological target: Dual specificity protein kinase CLK2 (Homo sapiens, UniProt P49760); assay: Invitrogen kinase screen (CLK2)
[39] = biological target: Beta-2 adrenergic receptor (Homo sapiens) (UniProt P07550); conditions: Compound concentration 10.0 uM
[40] = biological target: Cyclin-dependent kinase 7 (Homo sapiens, UniProt P50613); assay: Inhibition of CDK7 at compound concentration of 10.0 uM using the ScanMax (DiscoverX)
[41] = biological target: T1, Mitogen-activated protein kinase 1; assay: Cell Assay: Inhibition of RSK phosphorylation (pRSK with 40% human serum)
[42] = Compound concentration 1000.0 nM
[43] = Compound concentration 100.0 nM

C[C@H](NC(=O)Nc1cc2[nH]ncc2c(CO)n1)c1ccccn1 [ERKi-NC]
inhibition [1]: 2.71%
pKi [2]: 6.27
inhibition [3]: 20.8%
residual activity [4, 42]: 100%
inhibition [5]: 25.5%
residual activity [6, 42]: 76.6%
inhibition [7]: 12.8%
residual activity [8, 42]: 100%
inhibition [9]: 17.7%
residual activity [10, 42]: 85%
residual activity [11, 42]: 77.9%
inhibition [12]: -8.44%
residual activity [13, 42]: 85%
residual activity [14, 42]: 98.5%
inhibition [15]: -7.9%

C[C@@H](NC(=O)Nc1cc2[nH]ncc2c(CO)n1)c1ccccc1 [ERKi]
IC50 [16]: 0.28 µM (active)
Kd [17]: 0.14 µM (not active)
Kd [18]: 0.23 µM (not active)
IC50 [19]: 1.4 µM (not active)
IC50 [20]: 1.2 µM (not active)
residual activity [4, 43]: 100%
IC50 [21]: 0.77 µM (not active)
IC50 [22]: 0.95 µM (not active)
IC50 [23]: 0.27 µM (not active)
residual activity [6, 43]: 100%
IC50 [24]: 0.79 µM (not active)
IC50 [25]: 0.21 µM (not active)
inhibition [26]: 8.67%
EC50 [27]: 0.095 µM (active)
IC50 [27]: 0.85 µM (active)
IC50 [28]: 0.54 µM (not active)
residual activity [8, 43]: 94.8%
inhibition [29]: 4.23%
IC50 [30]: 0.004 µM (active)
inhibition [31]: -1.16%
IC50 [32]: 0.788 µM (active)
residual activity [10, 43]: 100%
IC50 [33]: 0.88 µM (not active)
Kd [34]: 0.13 µM (not active)
residual activity [11, 43]: 95.8%
Kd [35]: 0.14 µM (not active)
EC50 [36]: 0.032 µM (active)
pIC50 [36]: 5.17
Kd [37]: 0.0048 µM (active)
IC50 [38]: 0.94 µM (not active)
residual activity [13, 43]: 100%
residual activity [14, 43]: 91.2%
inhibition [39]: 1.36%
Kd [40]: 0.23 µM (not active)
IC50 [41]: 0.225 µM (active)

— ChEMBL document CHEMBL4507286 (2021)
